According to patent US10098900B2, “Pharmaceutical compositions and their use for treatment of cancer and autoimmune diseases” (ZHEJIANG DTRM BIOPHARMA CO. LTD., priority 2015, dated 2018):
Marks after values point to notes of the source that are not given here.

Assays:
TMD-8 cell line = experiment: Inhibition assay of tumor cell activity (cell viability), TMD-8; format: cell-based, human; conditions: individual compound; for Inh % on TMD-8 cell line (AVG): 48 h
Procedure: (§1) Inhibition Assay of Tumor Cell Activity:
(§2) Tumor cells (TMD-8, DoHH2 and WSU-DLCL2) were transferred and attached to 96-well plates. After one night, blank buffer and selected concentrations (0.01 nM-100 μM) of the test compound solution were added. After 48 hours incubation, CellTiter-Go was added to lyse the cells. Recording luminescent signal and calculate the percent inhibition of cell viability

WSU-DLCL2 xenograft = experiment: Inhibition of tumor growth in vivo, resistant WSU-DLCL2 SCID mouse model; conditions: for Antitumor effect (%): WSU-DLCL2, Oral, BID
Procedure: (§3) Inhibition Study of Tumor Growth In Vivo:
SCID mice or nude mice (weighing about 18 g at the beginning of the experiment) were randomly divided into groups by the software in order to achieve close average weights between groups and control the bias within the allowable range. The mice were injected BTK cell lines (TMD-8, WSU-DLCL2 and DoHH-2) for tumor formation. […] Body weights and tumor volume were recorded.
(§4) Xenograft Tumor Models Inoculated with TMD-8, or DoHH2, or WSU-DLCL2 Tumor Cell Lines:
TMD-8 is a sensitive human diffuse large B-cell lymphoma cell line, and DoHH2 is a more difficult to treat human follicular lymphoma cell line, while WSU-DLCL2 is a multi-drug resistant (MDR) human non-Hodgkin's lymphoma cell line.
The TMD-8, DoHH2, WSU-DLCL2 tumor cells were maintained in vitro as a suspension culture in RPMI-1640 medium supplemented with 10% heat inactivated fetal calf serum at 37° C. in an atmosphere of 5% CO2 in air. The tumor cells were routinely subcultured twice weekly. The cells growing in an exponential growth phase were harvested and counted for tumor inoculation. Each mouse was inoculated subcutaneously at the right flank with the tumor cells (10×10^6) in 0.2 ml of PBS with Matrigel (1:1) for tumor development. The treatments were started after the average tumor size reached approximately 100-200 mm^3. Each group consisted of 6-10 tumor-bearing mice. […] Animal body weight and tumor volume were measured every 2- or 3-days throughout the treatment.

DoHH-2 cell line = experiment: Inhibition assay of tumor cell activity (cell viability), DoHH-2; format: cell-based; conditions: Homo sapiens, individual compound, read-out: Inh % on DoHH-2 cell line (AVG)
Procedure: as §1, §2

TMD-8 lymphoma xenograft = experiment: Inhibition of tumor growth in vivo, TMD-8 lymphoma xenograft SCID mouse model; conditions: TMD-8, Oral, BID
Procedure: as §3
(§5) SCID mice or nude mice (weighing about 18 g at the beginning of the experiment) were randomly divided into groups by the software in order to achieve close average weights between groups and control the bias within the allowable range. The mice were injected BTK cell lines (TMD-8, WSU-DLCL2 and DoHH-2) for tumor formation. Inhibitors were administered orally once or twice a day, a total of 14 days, 21 days or 28 days. Body weights and tumor volume were recorded.
as §4
(§6) TMD-8 is a sensitive human diffuse large B-cell lymphoma cell line, and DoHH2 is a more difficult to treat human follicular lymphoma cell line, while WSU-DLCL2 is a multi-drug resistant (MDR) human non-Hodgkin's lymphoma cell line. Drug combination therapies provide better efficacies in all three tumor models than single targeted agent alone.
(§7) The TMD-8, DoHH2, WSU-DLCL2 tumor cells were maintained in vitro as a suspension culture in RPMI-1640 medium supplemented with 10% heat inactivated fetal calf serum at 37° C. in an atmosphere of 5% CO2 in air. The tumor cells were routinely subcultured twice weekly. The cells growing in an exponential growth phase were harvested and counted for tumor inoculation. Each mouse was inoculated subcutaneously at the right flank with the tumor cells (10×10^6) in 0.2 ml of PBS with Matrigel (1:1) for tumor development. The treatments were started after the average tumor size reached approximately 100-200 mm^3. Each group consisted of 6-10 tumor-bearing mice. The testing article (vehicle, compound or combination) was orally administrated to the mice according to the predetermined doses for 14-days or 21-days. Animal body weight and tumor volume were measured every 2- or 3-days throughout the treatment.

[1] = 28-day toxicity/toxicokinetic (TK) study in dogs; format: in vivo, dog
[2] = 28-day toxicity/toxicokinetic (TK) study in rats
Source text: Toxicity and toxicokinetic (TK) studies of the compounds can be performed by well known methods.

[3] = system: collagen induced arthritis; experiment: Collagen-induced arthritis (CIA) model in male DBA/1 mice (clinical score, histopathology); format: in vivo, mouse; design: Clinical Score (Mean) / Pathological score (Mean ± SEM), Inflammatory cell infiltration / Pathological score (Mean ± SEM), Pannus growth / Pathological score (Mean ± SEM), Cartilage injury / Pathological score (Mean ± SEM), Bone resorption / Pathological score (Mean ± SEM), Total: scale not given here
Procedure: Collagen-Induced Arthritis (CIA) Model: The combination of Compounds 3 and 12 was evaluated in collagen induced arthritis (CIA) mouse model in Male DBA/1 mice. The animals were divided into 8 groups, including a normal, a vehicle, […] treatment groups: […] On the same day, immunized mice were randomly divided into 7 groups: […] The treatments were given orally for 2 consecutive weeks. Body weight and clinical score were monitored through the study (recorded three times a week started after second immunization). At the end of the study, animals were euthanized and both hind paws were collected for histopathology analysis.

[4] = system: DoHH-2 lymphoma xenograft; experiment: Inhibition of tumor growth in vivo, DoHH-2 lymphoma xenograft SCID mouse model; conditions: BID, 21 days
Procedure: as §3, §5, §4, §6, §7

[5] = CIA study, Left hind paw, 3 alone, 1.5 mg/kg QD
[6] = CIA study, Right hind paw, 3 alone, 1.5 mg/kg QD

C=CC(=O)N1CC[C@@H](n2nc(-c3ccc(Oc4c(F)c(F)cc(F)c4F)cc3F)c3c(N)ncnc32)C1 [Compound 3, 1-((R)-3-(4-amino-3-(2-fluoro-4-(2,3,5,6-tetrafluorophenoxy)phenyl)-1H-pyrazolo[3,4-d]pyrimidin-1-yl)pyrrolidin-1-yl)prop-2-en-1-one]
inhibition at 0.01 µM (TMD-8 cell line; Homo sapiens, TMD8, 48 h, 0.01 uM (10 nM), read-out: Inh % on TMD-8 cell line (AVG)): 46.1%
inhibition at 0.1 µM (TMD-8 cell line; Homo sapiens, TMD8, 48 h, 0.1 uM (100 nM), read-out: Inh % on TMD-8 cell line (AVG)): 59.6%
inhibition at 1 µM (TMD-8 cell line; Homo sapiens, TMD8, 48 h, 1 uM (1,000 nM), read-out: Inh % on TMD-8 cell line (AVG)): 61.7%
inhibition at 10 µM (TMD-8 cell line; Homo sapiens, TMD8, 48 h, 10 uM, read-out: Inh % on TMD-8 cell line (AVG)): 74.9%
inhibition at 100 µM (TMD-8 cell line; Homo sapiens, TMD8, 48 h, 100 uM, read-out: Inh % on TMD-8 cell line (AVG)): 99.7%
Inh % on TMD-8 cell line (AVG) (TMD-8 cell line; 0.01 uM (10 nM)): 51.66%
Inh % on TMD-8 cell line (AVG) (TMD-8 cell line; 0.1 uM (100 nM)): 52.40%
Inh % on TMD-8 cell line (AVG) (TMD-8 cell line; 1 uM (1,000 nM)): 55.05%
Antitumor effect (%) (WSU-DLCL2 xenograft; FIG. 8, 28 days, 10 mg/kg): 22%
Antitumor effect (%) (WSU-DLCL2 xenograft; FIG. 8, 28 days, 30 mg/kg): 30%
Antitumor effect (%) (WSU-DLCL2 xenograft; FIG. 8, 28 days, 45 mg/kg): 32%
Antitumor effect (%) (WSU-DLCL2 xenograft; FIG. 9, 18 days, 5 mg/kg): 4%
Antitumor effect (%) (WSU-DLCL2 xenograft; FIG. 9, 18 days, 10 mg/kg): 7%
Antitumor effect (%) (WSU-DLCL2 xenograft; FIG. 9, 18 days, 30 mg/kg): 23%
efficacy / tumor growth (WSU-DLCL2 xenograft; WSU-DLCL2 mice model, FIGS. 8 and 9, triple combination at total 21 mg/kg/day): in line with the efficacy of Ibrutinib
inhibition at 0.01 µM (DoHH-2 cell line; 0.01 uM): 15.6%
inhibition at 0.1 µM (DoHH-2 cell line; 0.1 uM): 34.8%
inhibition at 1 µM (DoHH-2 cell line; 1 uM): 49.9%
Antitumor effect (%) (TMD-8 lymphoma xenograft; FIG. 2, 14 days, 10 mg/kg): 63%
Antitumor effect (%) (TMD-8 lymphoma xenograft; FIG. 2, 14 days, 30 mg/kg): 89%
Antitumor effect (%) (TMD-8 lymphoma xenograft; FIG. 3, 21 days, 5 mg/kg): 90%
Antitumor effect (%) (TMD-8 lymphoma xenograft; FIG. 3, 21 days, 10 mg/kg): 96%
Antitumor effect (%) (TMD-8 lymphoma xenograft; FIG. 4, 21 days, 10 mg/kg): 77%
Antitumor effect (%) (TMD-8 lymphoma xenograft; FIG. 12, 14 days, 5 mg/kg): 75%
AUC compared with ibrutinib [1]: significantly higher
Cmax ([1]; 15 mg/kg/day, Day 1, Female): 685 ± 212 ng/mL
difference in drug exposure between Day 1 and Day 28 ([2]; 28-day rat and dog studies): no significant difference
difference in drug exposure between male and female ([2]; 28-day rat and dog studies): no significant difference
AUC compared with ibrutinib ([2]; rats): significantly higher
effect on clinical score ([3]; CIA mice model, FIG. 15): absent
Pathological score (Mean ± SEM), Total ([3]; CIA study, 3 alone, 1.5 mg/kg QD): 3.90 ± 1.80
Pathological score (Mean ± SEM), Bone resorption [3, 5]: 0.60 ± 0.13
Pathological score (Mean ± SEM), Cartilage injury [3, 5]: 0.80 ± 0.47
Pathological score (Mean ± SEM), Inflammatory cell infiltration [3, 5]: 1.00 ± 0.47
Pathological score (Mean ± SEM), Pannus growth [3, 5]: 0.80 ± 0.47
Pathological score (Mean ± SEM), Bone resorption [3, 6]: 0.10 ± 0.10
Pathological score (Mean ± SEM), Cartilage injury [3, 6]: 0.20 ± 0.20
Pathological score (Mean ± SEM), Inflammatory cell infiltration [3, 6]: 0.20 ± 0.20
Pathological score (Mean ± SEM), Pannus growth [3, 6]: 0.20 ± 0.20
Clinical Score (Mean) ([3]; CIA study, day 21, 3 alone, 1.5 mg/kg QD): 0.00
Clinical Score (Mean) ([3]; CIA study, day 32, 3 alone, 1.5 mg/kg QD): 2.60
Clinical Score (Mean) ([3]; CIA study, day 39, 3 alone, 1.5 mg/kg QD): 4.20***
Clinical Score (Mean) ([3]; CIA study, day 42, 3 alone, 1.5 mg/kg QD): 4.00***
Antitumor effect (%) ([4]; FIG. 6, Oral, 5 mg/kg): 28.8%
Antitumor effect (%) ([4]; FIG. 6, Oral, 10 mg/kg): 20.1%
Antitumor effect (%) ([4]; FIG. 6, Oral, 30 mg/kg): 35.6%
Antitumor effect (%) ([4]; FIG. 7, Oral, 5 mg/kg): 15.9%
